Converted amounts (≈) assume the structure as drawn.
system: PAO1 mutant MIN16_2, nalC(aa9∆4), pilQ(nt46∆1); experiment: MIC, Sensititre custom plate; type: cell-based; conditions: Pseudomonas aeruginosa, PAO1, read-out: MIC, Sensititre
Description: (§1) Selection of resistant mutants was performed for minocycline with and without RW01 in three independent replicates for wild-type P. aeruginosa reference strain PAO1. Tubes containing Mueller-Hinton broth (MHB) were inoculated and incubated for 24 h at 37°C. Afterward, 1/100 dilution of each tube was incubated at 37°C in MHB to late-exponential growth phase, measured by spectrophotometry at OD600. […] A control plate without antibiotic was included as inoculum control. After overnight incubation, colony counting of each treatment was performed to analyze the generation of resistant population. The mutant prevention concentration (MPC) was defined as the lowest concentration of antibiotic yielding no growth of resistant mutants. Selected mutants were checked for susceptibility profiles by using a Sensititre custom plate (Thermo Fisher Scientific, Massachusetts, USA) for Gram-negative bacteria, following the manufacturer’s instructions.

Compound	MIC [mg/L]
C[C@@H](O)[C@H]1C(=O)N2C(C(=O)O)=C(S[C@@H]3CN[C@H](C(=O)N(C)C)C3)[C@H](C)[C@H]12 [Meropenem, meropenem]	2 (≈ 5.22 µM)

system: PAO1 mutant MIN1_RW01_1, pmrB(Y98N); experiment: MIC, Sensititre custom plate; type: cell-based; conditions: Pseudomonas aeruginosa, PAO1, read-out: MIC, Sensititre
Description: as §1

Compound	MIC [mg/L]
C[C@@H](O)[C@H]1C(=O)N2C(C(=O)O)=C(S[C@@H]3CN[C@H](C(=O)N(C)C)C3)[C@H](C)[C@H]12 [Meropenem, meropenem]	1 (≈ 2.61 µM)

system: P. aeruginosa PAO1, WT; experiment: MIC, Sensititre custom plate; type: cell-based; conditions: Pseudomonas aeruginosa, PAO1, read-out: MIC, Sensititre
Description: as §1

Compound	MIC [mg/L]
C[C@@H](O)[C@H]1C(=O)N2C(C(=O)O)=C(S[C@@H]3CN[C@H](C(=O)N(C)C)C3)[C@H](C)[C@H]12 [Meropenem, meropenem]	1 to 2 (≈ 2.61 to 5.22 µM)

system: PAO1 mutant MIN4_RW01_4, pmrB(Y98N); experiment: MIC, Sensititre custom plate; type: cell-based; conditions: Pseudomonas aeruginosa, PAO1, read-out: MIC, Sensititre
Description: as §1

Compound	MIC [mg/L]
C[C@@H](O)[C@H]1C(=O)N2C(C(=O)O)=C(S[C@@H]3CN[C@H](C(=O)N(C)C)C3)[C@H](C)[C@H]12 [Meropenem, meropenem]	1 (≈ 2.61 µM)

system: PAO1 mutant MIN32_1, mexR(R63H), pilB(N349K), PA0646(V316G); experiment: MIC, Sensititre custom plate; type: cell-based; conditions: Pseudomonas aeruginosa, PAO1, read-out: MIC, Sensititre
Description: as §1

Compound	MIC [mg/L]
C[C@@H](O)[C@H]1C(=O)N2C(C(=O)O)=C(S[C@@H]3CN[C@H](C(=O)N(C)C)C3)[C@H](C)[C@H]12 [Meropenem, meropenem]	4 (≈ 10.4 µM)

system: PAO1 mutant MIN4_RW01_3, pmrB(M292T); experiment: MIC, Sensititre custom plate; type: cell-based; conditions: Pseudomonas aeruginosa, PAO1, read-out: MIC, Sensititre
Description: as §1

Compound	MIC [mg/L]
C[C@@H](O)[C@H]1C(=O)N2C(C(=O)O)=C(S[C@@H]3CN[C@H](C(=O)N(C)C)C3)[C@H](C)[C@H]12 [Meropenem, meropenem]	2 (≈ 5.22 µM)

system: PAO1 mutant MIN2_RW01_3, parS(V152A); experiment: MIC, Sensititre custom plate; type: cell-based; conditions: Pseudomonas aeruginosa, PAO1, read-out: MIC, Sensititre
Description: as §1

Compound	MIC [mg/L]
C[C@@H](O)[C@H]1C(=O)N2C(C(=O)O)=C(S[C@@H]3CN[C@H](C(=O)N(C)C)C3)[C@H](C)[C@H]12 [Meropenem, meropenem]	2 to 4 (≈ 5.22 to 10.4 µM)

system: PAO1 mutant MIN16_3, nfxB(nt79∆14), pilB(N349K); experiment: MIC, Sensititre custom plate; type: cell-based; conditions: Pseudomonas aeruginosa, PAO1, read-out: MIC, Sensititre
Description: as §1

Compound	MIC [mg/L]
C[C@@H](O)[C@H]1C(=O)N2C(C(=O)O)=C(S[C@@H]3CN[C@H](C(=O)N(C)C)C3)[C@H](C)[C@H]12 [Meropenem, meropenem]	≤ 0.5

system: PAO1 mutant MIN1_RW01_3, pmrB(V215L); experiment: MIC, Sensititre custom plate; type: cell-based; conditions: Pseudomonas aeruginosa, PAO1, read-out: MIC, Sensititre
Description: as §1

Compound	MIC [mg/L]
C[C@@H](O)[C@H]1C(=O)N2C(C(=O)O)=C(S[C@@H]3CN[C@H](C(=O)N(C)C)C3)[C@H](C)[C@H]12 [Meropenem, meropenem]	1 (≈ 2.61 µM)

system: PAO1 mutant MIN16_1, nalD(T43P); experiment: MIC, Sensititre custom plate; type: cell-based; conditions: Pseudomonas aeruginosa, PAO1, read-out: MIC, Sensititre
Description: as §1

Compound	MIC [mg/L]
C[C@@H](O)[C@H]1C(=O)N2C(C(=O)O)=C(S[C@@H]3CN[C@H](C(=O)N(C)C)C3)[C@H](C)[C@H]12 [Meropenem, meropenem]	4 (≈ 10.4 µM)

system: PAO1 mutant MIN1_RW01_2, mexR(G58E), pilB(G326D), hutC(Y181X); experiment: MIC, Sensititre custom plate; type: cell-based; conditions: Pseudomonas aeruginosa, PAO1, read-out: MIC, Sensititre
Description: as §1

Compound	MIC [mg/L]
C[C@@H](O)[C@H]1C(=O)N2C(C(=O)O)=C(S[C@@H]3CN[C@H](C(=O)N(C)C)C3)[C@H](C)[C@H]12 [Meropenem, meropenem]	4 (≈ 10.4 µM)

system: PAO1 mutant MIN2_RW01_4, pmrB(M292T); experiment: MIC, Sensititre custom plate; type: cell-based; conditions: Pseudomonas aeruginosa, PAO1, read-out: MIC, Sensititre
Description: as §1

Compound	MIC [mg/L]
C[C@@H](O)[C@H]1C(=O)N2C(C(=O)O)=C(S[C@@H]3CN[C@H](C(=O)N(C)C)C3)[C@H](C)[C@H]12 [Meropenem, meropenem]	1 (≈ 2.61 µM)

system: PAO1 mutant MIN2_RW01_1, pmrB(V215L); experiment: MIC, Sensititre custom plate; type: cell-based; conditions: Pseudomonas aeruginosa, PAO1, read-out: MIC, Sensititre
Description: as §1

Compound	MIC [mg/L]
C[C@@H](O)[C@H]1C(=O)N2C(C(=O)O)=C(S[C@@H]3CN[C@H](C(=O)N(C)C)C3)[C@H](C)[C@H]12 [Meropenem, meropenem]	1 (≈ 2.61 µM)

system: PAO1 mutant MIN4_RW01_1, pmrB(R429H); experiment: MIC, Sensititre custom plate; type: cell-based; conditions: Pseudomonas aeruginosa, PAO1, read-out: MIC, Sensititre
Description: as §1

Compound	MIC [mg/L]
C[C@@H](O)[C@H]1C(=O)N2C(C(=O)O)=C(S[C@@H]3CN[C@H](C(=O)N(C)C)C3)[C@H](C)[C@H]12 [Meropenem, meropenem]	4 (≈ 10.4 µM)

system: PAO1 mutant MIN2_RW01_2, pmrB(M292T); experiment: MIC, Sensititre custom plate; type: cell-based; conditions: Pseudomonas aeruginosa, PAO1, read-out: MIC, Sensititre
Description: as §1

Compound	MIC [mg/L]
C[C@@H](O)[C@H]1C(=O)N2C(C(=O)O)=C(S[C@@H]3CN[C@H](C(=O)N(C)C)C3)[C@H](C)[C@H]12 [Meropenem, meropenem]	1 (≈ 2.61 µM)

system: PAO1 mutant MIN8_3, pilZ(nt18InsT); experiment: MIC, Sensititre custom plate; type: cell-based; conditions: Pseudomonas aeruginosa, PAO1, read-out: MIC, Sensititre
Description: as §1

Compound	MIC [mg/L]
C[C@@H](O)[C@H]1C(=O)N2C(C(=O)O)=C(S[C@@H]3CN[C@H](C(=O)N(C)C)C3)[C@H](C)[C@H]12 [Meropenem, meropenem]	2 (≈ 5.22 µM)

Source: paper PMC11823630, “In vitro potentiation of tetracyclines in Pseudomonas aeruginosa by RW01, a new cyclic peptide” (Antimicrobial Agents and Chemotherapy, 2024)
